Experimental data taken from article PMC5363373, “Zirconium tetraazamacrocycle complexes display extraordinary stability and provide a new strategy for zirconium-89-based radiopharmaceutical development” (Chemical Science, 2016).

Experiments:
[1] = In vitro EDTA challenge study; type: physicochemical
Procedure: In vitro EDTA challenge study. In vitro EDTA challenge study was carried out by adding 10 µL of each 89Zr-labeled complex (70 μCi, 2.59 MBq) to 500 µL of EDTA (10 mM, 50 mM and 100 mM: pH 5 and pH 7) with a 1:100, 1:500, and 1:1000 ratio of ligand/EDTA. The solutions (n=4) were incubated at 37 °C for 7 days in a thermomixer. Samples were analyzed at 30 min, 1 h, 3 h, 6 h, 1 d, 3 d, 5 d and 7 d post administration to EDTA by radio-TLC using Varian ITLC-SA strips and 0.1 M EDTA (pH 5) as the mobile phase and gamma counting using an energy window of 500-1500 keV and standard protocols .

[2] = In vitro metal competition study; type: physicochemical; settings: PBS pH 7.4, 37 C
Procedure: In vitro Metal Competition study. To a solution of metal cations [iron (III) chloride, cobalt (II) chloride, zinc (II) chloride, copper (II) chloride, magnesium (II) chloride, gallium (III) nitrate, gadolinium (III) chloride] (1 mM, 200 µL), was added 89Zr-labeled complex (0.1 mM, 10 µL, 80 μCi, 2.96 MBq) in PBS, pH 7.4. The resulting solutions (n = 3) were incubated at 37 °C for 7 days in a thermomixer. Dissociation of 89Zr from 89Zr-complexes was monitored by radio-TLC at 2 h, 1 d, 4 d and 7 d time point. All studies were performed in triplicate.

[3] = In vitro serum stability (radio-ITLC); type: in vitro ADME; settings: 37 C, after 7 days
Procedure: In vitro serum stability. In vitro serum stability was carried out by adding 10 µL of each 89Zr-labeled complex (70 μCi, 2.59 MBq) to 500 µL of human serum. The solutions (n=4) were incubated at 37 °C for 7 days and were analyzed daily for 1 week by radio -TLC using Varian ITLC-SA strips and 0.1 M EDTA (pH 5) as the mobile phase and gamma counting using an energy window of 500-1500 keV and standard protocols . Serum samples were also analyzed after 7 days by size exclusion chromatography (SEC) using a Superdex 200 10/300 GLTM column (GE Healthcare Life Sciences, Piscataway, NJ) and phosphate buffered saline (PBS) as eluent with a flow rate of 0.5 mL/min.
Figure S30. Radio-ITLC of 89Zr-DOTA solution in human serum at 37 °C after 0 h (a) and 7 days (b). […]

[4] = Biodistribution studies; type: in vivo, female NIH Swiss mice; settings: mice, intravenous, 72 h post-injection
Procedure: Biodistribution Studies. Biodistribution studies were conducted using a modified literature procedure. 7 Briefly, female NIH Swiss mice (6-8 wk old, n=6) were injected with each 89Zr-labeled complex (0.55 MBq (15 μCi)/mouse) via the tail vein, and sacrificed at 2, 4, 24, 48, 72 h post-injection. Organs and tissues of interest were excised, weighted, and counted on a Perkin Elmer 2480 Wizard® gamma counter (Waltham, MA). The percent injected dose per gram (%ID/g) and percent injected dose per organ (%ID/organ) were calculated by comparison to a weighed, counted standard for each group (Tables S9 – S12).
Statistical Methods. All of the data are presented as mean±SD or mean (95% Confidence Interval). For statistical classification a student’s t test (two-tailed, unpaired) was performed using GraphPad Prism (San Diego, CA). Any p<0.05 was considered significant.

% Intact of 89Zr-complexes ([1]; EDTA 100-fold, pH 5.0, 37 C, 1 h): 98.6 ± 0.3%
% Intact of 89Zr-complexes ([1]; EDTA 100-fold, pH 5.0, 37 C, 1 d): 91.8 ± 0.9%
% Intact of 89Zr-complexes ([1]; EDTA 100-fold, pH 5.0, 37 C, 3 d): 84.3 ± 0.7%
% Intact of 89Zr-complexes ([1]; EDTA 100-fold, pH 5.0, 37 C, 5 d): 78.6 ± 1.0%
% Intact of 89Zr-complexes ([1]; EDTA 100-fold, pH 5.0, 37 C, 7 d): 56.5 ± 1.4%
% Intact of 89Zr-complexes ([1]; EDTA 100-fold, pH 7.0, 37 C, 1 h): 99.8 ± 0.1%
% Intact of 89Zr-complexes ([1]; EDTA 100-fold, pH 7.0, 37 C, 1 d): 98.6 ± 0.1%
% Intact of 89Zr-complexes ([1]; EDTA 100-fold, pH 7.0, 37 C, 3 d): 96.8 ± 0.3%
% Intact of 89Zr-complexes ([1]; EDTA 100-fold, pH 7.0, 37 C, 5 d): 94.5 ± 0.5%
% Intact of 89Zr-complexes ([1]; EDTA 100-fold, pH 7.0, 37 C, 7 d): 92.5 ± 0.4%
% Intact of 89Zr-complexes ([1]; EDTA 500-fold, pH 5.0, 37 C, 1 h): 97.4 ± 0.4%
% Intact of 89Zr-complexes ([1]; EDTA 500-fold, pH 5.0, 37 C, 1 d): 89.4 ± 0.7%
% Intact of 89Zr-complexes ([1]; EDTA 500-fold, pH 5.0, 37 C, 3 d): 72.4 ± 1.4%
% Intact of 89Zr-complexes ([1]; EDTA 500-fold, pH 5.0, 37 C, 5 d): 66.7 ± 0.7%
% Intact of 89Zr-complexes ([1]; EDTA 500-fold, pH 5.0, 37 C, 7 d): 53.8 ± 0.8%
% Intact of 89Zr-complexes ([1]; EDTA 500-fold, pH 7.0, 37 C, 1 h): 99.5 ± 0.3%
% Intact of 89Zr-complexes ([1]; EDTA 500-fold, pH 7.0, 37 C, 1 d): 98.2 ± 0.1%
% Intact of 89Zr-complexes ([1]; EDTA 500-fold, pH 7.0, 37 C, 3 d): 94.9 ± 1.1%
% Intact of 89Zr-complexes ([1]; EDTA 500-fold, pH 7.0, 37 C, 5 d): 91.4 ± 0.3%
% Intact of 89Zr-complexes ([1]; EDTA 500-fold, pH 7.0, 37 C, 7 d): 89.3 ± 0.6%
% Intact of 89Zr-complexes ([1]; EDTA 1000-fold, pH 5.0, 37 C, 1 h): 96.3 ± 0.5%
% Intact of 89Zr-complexes ([1]; EDTA 1000-fold, pH 5.0, 37 C, 1 d): 87.3 ± 1.2%
% Intact of 89Zr-complexes ([1]; EDTA 1000-fold, pH 5.0, 37 C, 3 d): 67.5 ± 1.1%
% Intact of 89Zr-complexes ([1]; EDTA 1000-fold, pH 5.0, 37 C, 5 d): 58.9 ± 1.4%
% Intact of 89Zr-complexes ([1]; EDTA 1000-fold, pH 5.0, 37 C, 7 d): 43.7 ± 1.1%
% Intact of 89Zr-complexes ([1]; EDTA 1000-fold, pH 7.0, 37 C, 1 h): 99.2 ± 0.1%
% Intact of 89Zr-complexes ([1]; EDTA 1000-fold, pH 7.0, 37 C, 1 d): 97.9 ± 0.1%
% Intact of 89Zr-complexes ([1]; EDTA 1000-fold, pH 7.0, 37 C, 3 d): 91.5 ± 0.6%
% Intact of 89Zr-complexes ([1]; EDTA 1000-fold, pH 7.0, 37 C, 5 d): 84.9 ± 0.6%
% Intact of 89Zr-complexes ([1]; EDTA 1000-fold, pH 7.0, 37 C, 7 d): 79.4 ± 1.2%
% Intact of 89Zr-complexes ([2]; Co2+, 2 h): 99.1 ± 0.2%
% Intact of 89Zr-complexes ([2]; Co2+, 1 d): 97.2 ± 0.1%
% Intact of 89Zr-complexes ([2]; Co2+, 4 d): 95.3 ± 0.5%
% Intact of 89Zr-complexes ([2]; Co2+, 7 d): 93.5 ± 1.3%
% Intact of 89Zr-complexes ([2]; Cu2+, 2 h): 98.4 ± 0.1%
% Intact of 89Zr-complexes ([2]; Cu2+, 1 d): 95.4 ± 0.2%
% Intact of 89Zr-complexes ([2]; Cu2+, 4 d): 97.5 ± 0.7%
% Intact of 89Zr-complexes ([2]; Cu2+, 7 d): 94.4 ± 1.3%
% Intact of 89Zr-complexes ([2]; Fe3+, 2 h): 99.3 ± 0.1%
% Intact of 89Zr-complexes ([2]; Fe3+, 1 d): 96.8 ± 1.2%
% Intact of 89Zr-complexes ([2]; Fe3+, 4 d): 89.5 ± 0.7%
% Intact of 89Zr-complexes ([2]; Fe3+, 7 d): 84.0 ± 0.4%
% Intact of 89Zr-complexes ([2]; Ga3+, 2 h): 99.2 ± 0.1%
% Intact of 89Zr-complexes ([2]; Ga3+, 1 d): 98.2 ± 0.2%
% Intact of 89Zr-complexes ([2]; Ga3+, 4 d): 93.6 ± 0.6%
% Intact of 89Zr-complexes ([2]; Ga3+, 7 d): 91.1 ± 1.4%
% Intact of 89Zr-complexes ([2]; Gd3+, 2 h): 99.5 ± 0.4%
% Intact of 89Zr-complexes ([2]; Gd3+, 1 d): 97.9 ± 0.4%
% Intact of 89Zr-complexes ([2]; Gd3+, 4 d): 93.2 ± 1.0%
% Intact of 89Zr-complexes ([2]; Gd3+, 7 d): 91.7 ± 2.0%
% Intact of 89Zr-complexes ([2]; Mg2+, 2 h): 99.2 ± 0.2%
% Intact of 89Zr-complexes ([2]; Mg2+, 1 d): 99.4 ± 0.1%
% Intact of 89Zr-complexes ([2]; Mg2+, 4 d): 98.1 ± 0.1%
% Intact of 89Zr-complexes ([2]; Mg2+, 7 d): 96.3 ± 0.4%
% Intact of 89Zr-complexes ([2]; Zn2+, 2 h): 99.0 ± 0.1%
% Intact of 89Zr-complexes ([2]; Zn2+, 1 d): 95.4 ± 0.3%
% Intact of 89Zr-complexes ([2]; Zn2+, 4 d): 89.4 ± 1.5%
% Intact of 89Zr-complexes ([2]; Zn2+, 7 d): 84.7 ± 2.7%
Radio-ITLC peak of complex in human serum [3]: 95.2%
Radioactivity in blood [4]: 0.0005 ± 0.001 % ID per g
Radioactivity in bone [4]: 2.63 ± 0.12 % ID per g
Radioactivity in kidney [4]: 0.32 ± 0.045 % ID per g
Radioactivity in liver [4]: 0.036 ± 0.002 % ID per g
Structure (SMILES): O=P1(O)CN2CCN3CCN4CCN(CC2)CP(=O)(O)[O][89Zr]([O]1)([O]P(=O)(O)C3)[O]P(=O)(O)C4 [89Zr-DOTP]
